A short description of data set [1]: Pharmacokinetics of NC-758-1 in mild to moderate Alzheimer's Disease patients, 12 weeks BID (Example 10). The note with it: human, plasma, oral, AD patients; for Tmax: median. It is filed as in vivo.
A short description of data set [2]: Single oral dose pharmacokinetics of NC-758-1 in healthy elderly volunteers (Example 9). The note with it: elderly (≧55 years) male and female subjects, fasted; for Tmax: median. It is filed as in vivo, human. The source says:
(§1) In the following examples and elsewhere herein, terms are as defined below. The pharmacokinetic parameters were derived by non-compartmental analysis using WinNonlin Version 2.1. • Cmax—the maximum observed plasma concentration. • Tmax—the time of occurrence of Cmax. • AUC0-t—the area under the plasma concentration versus time curve from time zero to the last sampling time at which concentrations were at or above the limit of quantification, calculated by the linear trapezoidal rule. • AUC∞—the area under the plasma concentrations versus time curve from time zero to infinity, calculated from AUC0-t+(Clast/λz), where Clast is the last observed quantifiable concentration and λz is the apparent terminal rate constant. • t1/2—the apparent terminal half-life, calculated from 1n 2λz.
The pharmacokinetic profile and the effect of food on single oral doses of 3-APS free acid (modified-release enteric-coated tablet as described in Table 5 above, hereinafter “NC-758-1”) in healthy male and female elderly (≧55 years) volunteers. The test was an open label, three-period crossover study to assess the pharmacokinetic profile of 3 single oral doses of NC-758-1 in healthy elderly (≧55 years) male and female subjects. The blood samples were collected during 24 h following dosing. Plasma concentrations of 3-APS were determined using a validated LC-MS/MS method.

Data set [3] can be described thus: Crossing of the blood/brain barrier. The arrangement: species or system human. The note with it: in vivo.
Data set [4] in a line: Part I: multiple rising oral dose pharmacokinetics of NC-758 in healthy young and elderly subjects (Example 8). It is filed as in vivo, human. The note with it: fasted; for Tmax: median.
Text: as §1
The pharmacokinetic profile of multiple rising oral doses of 3-APS free acid (NC-758 of Table 3 above) in healthy male young subjects (18-45 years) and healthy male and female elderly (≧55 years) subjects was assessed. The pharmacokinetic profile of a titrated multiple oral rising dose regimen of NC-758 was also assessed in one group of healthy male young (18-45 years) subjects. […] Part I was a randomized, double-blind, placebo-controlled study to assess the pharmacokinetic profile of 2 multiple rising oral doses of NC-758 in healthy young (18-45 years) male subjects. […] In Part I, blood samples were collected through 24 h after the first dose on Day 1, before each morning dose on Days 2 to 11, and through 48 h after the final dose on Day 12. For Part II, blood samples were collected through 36 and 48 h, respectively. Plasma concentrations of 3-APS were determined using a validated LC-MS/MS method.

A short description of data set [5]: Pharmacokinetics of NC-758-1 in mild to moderate Alzheimer's Disease patients, 12 weeks BID (Example 10). It is filed as in vivo. The note with it: human, plasma, oral, AD patients; for AUC(0-inf): only patients with estimable elimination rate constant; for Tmax: median.
Text: as §1
A multicenter, randomized, double-blind, placebo-controlled and parallel designed study has been completed with NC-758-1 from Table 5 above in patients suffering from mild to moderate Alzheimer's Disease (AD). This study included assessing the pharmacokinetic/pharmacodynamic profile in AD patients.
A total of fifty-eight (58) mild to moderate AD patients (MMSE scores=13 to 26) were enrolled from 6 centers in the United States. Patients were randomized to receive in 1:1:1:1 ratio of NC-758-1 at 50, […], 150 mg BID or placebo BID for 12 weeks. Study medication was administered orally (tablet). Each patient was evaluated on 6 occasions at screening, baseline [Week 0], weeks 2, 4, 8 and 12. Blood samples were collected from each patient prior to dosing and at specified time points through 12 h post-dose after the first dose (Week 0) and the last dose (Week 12). Blood samples were also collected prior to the first dose of the day during Week 2, 4 and 8 visits.

Data set [6] can be described thus: Hygroscopic nature of the active ingredient. It is filed as physicochemical.
The nature of data set [7]: Single rising oral dose pharmacokinetics of NC-758 in healthy young and elderly male volunteers (Example 7). It is filed as in vivo, human. The settings on record: for Tmax: median.
Text: as §1
The pharmacokinetic profile and the effect of food on single rising oral doses of 3-APS free acid (modified-release enteric-coated tablet, as described in Table 3 above, hereinafter “NC-758”) in healthy male young (18-45 years) volunteers was determined. The pharmacokinetics of a single oral dose of NC-758 was also determined in a group of healthy male elderly (≧55 years old) volunteers. The test was a randomized, double-blind, placebo-controlled study to assess the pharmacokinetic profile of 4 single rising oral doses of NC-758 in healthy young (18-45 years) male subjects. Blood samples were collected during 24 h following dosing. Plasma concentrations of 3-APS were determined using a validated LC-MS/MS method.

For data set [8] the following is noted: dog, in vivo. On the procedure: (§2) Furthermore, the non-hygroscopic nature of the acid form makes it desirable as active pharmaceutical ingredient. To further protect against any possible gastrointestinal intolerance that could result from the acid form, the tablets were enteric-coated and a modified-release agent was added to control any rapid release of the drug in the stomach and the intestine, respectively.

Another data set has as its system CSF Aβ42. The data set can be described thus: CSF Aβ42 and Aβ42/Aβ40 ratio in mild-to-moderate AD patients. Type of data set: in vivo, human. On the procedure:
FIG. 1 Change from Baseline CSF Aβ42 versus 3-APS doses
FIG. 2 Effect of 3-APS on CSF Aβ42/40 Ratio in Mild-to-Moderate AD Patients—Placebo vs. 150 mg BID

Data set [9] in a line: Gastrointestinal symptoms after administration of solid dosage form (capsules). It is filed as in vivo. On the procedure:
as §2

Where [10] appears, read: 50 mg, Alzhemed (NC-758-1) 50 mg BID, Week 0 (single dose), mean.
The mark [11] stands for this setting: 150 mg, Alzhemed (NC-758-1) 150 mg BID, Week 0 (single dose), mean.
Where [12] appears, read: 200 mg dose, elderly vs. young (Tables 9 and 10).

`NCCCS(=O)(=O)O` [3-APS, 3-amino-1-propanesulfonic acid]: the highest concentration (Cmax) (in general, the maximum level reached in the sampled fluid or tissue) is 451 ng/mL in data set [1] (50 mg, Alzhemed (NC-758-1) 50 mg BID, Week 12 (repeated), mean); about 618 ng/mL in [1] (100 mg, Alzhemed (NC-758-1) 100 mg BID, Week 0 (single dose), mean); 538 ng/mL in data set [1] (100 mg, Alzhemed (NC-758-1) 100 mg BID, Week 12 (repeated), mean); about 310 ng/mL in [5] (setting [10]); about 624 ng/mL in [5] (setting [11]); 639 ng/mL in data set [5] (150 mg, Alzhemed (NC-758-1) 150 mg BID, Week 12 (repeated), mean). In addition, the AUC(0-t) in data set [1] (50 mg, Alzhemed (NC-758-1) 50 mg BID, Week 12 (repeated), mean, read-out: AUC0-t (AUCss for Week 12)) was 1980 ng·h/mL; in [1] (100 mg, Alzhemed (NC-758-1) 100 mg BID, Week 0 (single dose), mean, read-out: AUC0-t) it was about 2470 ng·h/mL; in data set [1] (100 mg, Alzhemed (NC-758-1) 100 mg BID, Week 12 (repeated), mean, read-out: AUC0-t (AUCss for Week 12)) it was 2590 ng·h/mL; in data set [1] (150 mg, Alzhemed (NC-758-1) 150 mg BID, Week 0 (single dose), mean, read-out: AUC0-t) it was about 2790 ng·h/mL; in data set [1] (150 mg, Alzhemed (NC-758-1) 150 mg BID, Week 12 (repeated), mean, read-out: AUC0-t (AUCss for Week 12)) it was 3570 ng·h/mL; in data set [4] (human, plasma, oral, NC-758 100 mg BID, Day 1, young (18-45 years) male subjects, mean, read-out: AUC0-12 h), 1330 ng·h/mL. The same molecule came in with an AUC(0-t) in [5] (setting [10]) of about 1320 ng·h/mL. Further, the Tmax (in general, the time from dosing to the highest level) was 3 h in data set [1] (50 mg, Alzhemed (NC-758-1) 50 mg BID, Week 12 (repeated)); about 4.7 h in [1] (100 mg, Alzhemed (NC-758-1) 100 mg BID, Week 0 (single dose)); 3.5 h in [1] (100 mg, Alzhemed (NC-758-1) 100 mg BID, Week 12 (repeated)); 3 h in data set [1] (150 mg, Alzhemed (NC-758-1) 150 mg BID, Week 12 (repeated)); 5 h in [2] (NC-758-1 single oral 50 mg); 5 h in [2] (NC-758-1 single oral 100 mg). The time of peak concentration (Tmax) in data set [2] (NC-758-1 single oral 150 mg) worked out at 5 h; in [4] (NC-758 200 mg BID, Day 1, elderly (≧55 years) male and female subjects) it was 6 h; in [4] (NC-758 200 mg BID, Day 12, young (18-45 years) male subjects) it was 4 h; in data set [4] (both sexes, human, plasma, oral, 200 mg, NC-758 200 mg BID, Day 12, elderly (≧55 years) male and female subjects, read-out: Tmax), 5 h; in [4] (male, human, plasma, oral, 100 mg, NC-758 100 mg BID, Day 1, young (18-45 years) male subjects, read-out: Tmax), 6 h; in [4] (male, human, plasma, oral, 100 mg, NC-758 100 mg BID, Day 12, young (18-45 years) male subjects, read-out: Tmax), 2.5 h. The Tmax was 4 h in data set [4] (male, human, plasma, oral, 200 mg, NC-758 200 mg BID, Day 1, young (18-45 years) male subjects, read-out: Tmax); about 6 h in data set [5] (50 mg, Alzhemed (NC-758-1) 50 mg BID, Week 0 (single dose)); about 6 h in data set [5] (150 mg, Alzhemed (NC-758-1) 150 mg BID, Week 0 (single dose)); 5 h in data set [7] (NC-758 single oral 200 mg, elderly (>55 years) male subjects, fasted); 5 h in data set [7] (NC-758 single oral 200 mg, young (18-45 years) male subjects, fasted); 5 h in data set [7] (NC-758 single oral 300 mg, young (18-45 years) male subjects, fasted). In addition, in [7] (human, plasma, NC-758 single oral 100 mg, young (18-45 years) male subjects, fasted, read-out: Tmax), the Tmax was 5 h. In addition, the AUC(0-inf) (usually total exposure, with the tail of the curve extrapolated) in data set [1] (100 mg, Alzhemed (NC-758-1) 100 mg BID, Week 0 (single dose), mean, only patients with estimable elimination rate constant) is about 2570 ng·h/mL; in [5] (setting [10]), about 1400 ng·h/mL; in [5] (setting [11]) it was about 3420 ng·h/mL; in data set [7] (human, plasma, NC-758 single oral 200 mg, elderly (>55 years) male subjects, fasted, calculated for one individual only), 5760 ng·h/mL. Also, the “AUC∞” value in [2] (NC-758-1 single oral 150 mg, mean, only subjects with estimable elimination rate constant) worked out at 4497 ng·h/mL. The “crossing of the blood/brain barrier” value in data set [3] was “crossed the blood/brain barrier”. Further, the hygroscopic nature result in data set [6] is “non-hygroscopic”. In addition, the “AUC0-t greater in elderly subjects compared to young subjects” value in [7] (setting [12]) is reported as “approximately 70%”. In data set [7] (setting [12]), the “Cmax greater in elderly subjects compared to young subjects” value is listed as “approximately 70%”. The tolerability result in [8] is on record as “better tolerated than the sodium salt form”. Moreover, the “ratio of Aβ42/Aβ40” value in the data set with CSF Aβ42 (CSF, mild-to-moderate AD patients, FIGS. 2, 3 and 4) is “reduced the ratio of Aβ42/Aβ40”. Also, in the data set on CSF Aβ42 (FIG. 1), the “baseline CSF Aβ42” value is listed as “reduced baseline CSF Aβ42”.

With `NCCCS(=O)(=O)[O-].[Na+]` [3-amino-1-propanesulfonic acid, sodium salt], in data set [9], the “gastrointestinal symptoms (i.e. nausea and vomiting)” value was “associated with gastrointestinal symptoms”.

These data come from US8835500B2, “Pharmaceutical formulations of amyloid inhibiting compounds” (BHI Limited Partership, priority 2003, dated 2014).
